Results: patent publication US10550084B2, “Substituted 1-hydroxy-pyridin-2(1H)-ones, and methods of making and using same” (ARBUTUS BIOPHARMA CORPORATION, priority 2017, dated 2020)

How the values were obtained:
Format in all cases: cell-based
[1] = tested on: HA-tagged HBeAg (HBV) in DESHAe82 cells; assay: AlphaLisa eAg: HA-HBeAg level in DESHAe82 cell culture (anti-HBV / anti-cccDNA activity); settings: Hepatitis B virus, 216 h, read-out: AlphaLisa_eAg EC50
Procedure: Evaluation of anti-HBV activity of the compounds in in vitro cell culture studies was conducted using a modification of the assay system described in Cai et al., 2012, Antimicrobial Agents Chemotherapy 56(8):4277-88, and PCT/EP/2015/06838. In the DESHAe82 cell culture system, the HA epitope-tagged secreted HBV “e antigen” (HBeAg) and HBV precore RNA are produced only from the cccDNA circular template that is formed after HBV replication in absence of Tetracycline (Tet). The DESHAe82 cell line produces high levels of cccDNA synthesis and HA-HBeAg, and high specific readout signals with low noise.
Two assay systems, a chemiluminescence ELISA (CLIA) and a proximity […] assay (AlphaLISA) were developed and used for high-sensitivity detection of HA-tagged HBeAg. To test the compound, DESHAe82 were plated in 96 well tissue-culture treated microtiter plates in DMEM/F12 medium supplemented with 10% fetal bovine serum+1% penicillin-streptomycin with Tet, and incubated in a humidified incubator at 37° C. and 5% CO2 overnight. Next day, the cells were switched to fresh medium without Tet and treated with a test compound, over a range of concentrations (compound is solubilized in 100% DMSO before dilution in cell culture media, and the final DMSO concentration in the assay was 0.5%), and incubated for a duration of 9 days in a humidified incubator at 37° C. and 5% CO2. Untreated negative control samples (0.5% DMSO only) were included on each plate in multiple wells. On day 9, media was harvested and removed to a fresh plate, and level of HA-HBeAg was determined by CLIA or AlphaLISA. Anti-cccDNA activity of each test compound concentration was calculated as a percentage of HA-HBeAg signal detected in negative control samples versus compound-treated samples, and EC50 value for each compound was defined as the concentration that reduced the HA-HBeAg signal by 50%.

[2] = tested on: plus-strand of HBV rcDNA in HepDE19 cells; assay: HepDE19 assay with bDNA quantitation of HBV rcDNA, plus-strand probe set; settings: Hepatitis B virus, 168 h, 7 days, top concentration 25 μM, Quantigene 2.0 bDNA, plus-strand (PS) rcDNA, read-out: bDNA_RCDNA_PS EC50
Procedure: (§1) (b) HepDE19 Assay with bDNA Quantitation of HBV rcDNA
(§2) HepDE19 cell culture system is a HepG2 (human hepatocarcinoma) derived cell line that supports HBV DNA replication and cccDNA formation in a tetracycline (Tet)-regulated manner and produces HBV rcDNA and a detectable reporter molecule dependent on the production and maintenance of cccDNA (Guo, et al., 2007, J. Virol. 81:12472-12484). HepDE19 (50,000 cells/well) were plated in 96 well collagen-coated tissue-culture treated microtiter plates in DMEM/F12 medium supplemented with 10% fetal bovine serum, 1% penicillin-streptomycin and 1 μg/mL tetracycline and incubated in a humidified incubator at 37° C. and 5% CO2 overnight. Next day, the cells were switched to fresh medium without tetracycline and incubated for 4 hrs at 37° C. and 5% CO2. The cells were treated with fresh Tet-free medium with compounds at concentrations starting at 25 μM and a serial, ½ log, 8-point, titration series in duplicate. The final DMSO concentration in the assay was 0.5%. The plates were incubated for 7 days in a humidified incubator at 37° C. and 5% CO2. Following a 7 day-incubation, the level of rcDNA present in the inhibitor-treated wells was measured using a Quantigene 2.0 bDNA assay kit (Affymetrix, Santa Clara, Calif.) with HBV specific custom probe set and manufacturer's instructions. In order to differentiate HBV RNaseH inhibitors from other classes of HBV inhibitors (for example, nucleos(t)ide analogs or capsid inhibitors), the assay method was configured by incorporating the quantitation of both the minus-strand and the plus-strand of HBV rcDNA levels using specifically designed HBV probe sets. This is based on the observation that inhibition of RNaseH enzyme activity results in a block of the synthesis of the plus strand synthesis by the viral polymerase that follows the synthesis of the minus-strand of rcDNA (Tavis & Lomonosova, 2015, Antiviral Res. 118:132-138). […] In contrast, treatment with HBV inhibitors such as a nucleos(t)ide analogs or capsid inhibitors reduces the production of both strands of HBV rcDNA in cells. Concurrently, the effect of compounds on cell viability was assessed using replicate plates, plated at a density of 5,000 cells/well and incubated for 4 days, to determine the ATP content as a measure of cell viability using the cell-titer glo reagent (CTG; Promega Corporation, Madison, Wis.) as per manufacturer's instructions. The plates were read using a Victor luminescence plate reader (PerkinElmer Model 1420 Multilabel counter) and the relative luminescence units (RLU) data generated from each well was calculated as % inhibition of the untreated control wells and analyzed using XL-Fit module in Microsoft Excel to determine EC50 and EC90 (bDNA) and CC50 (CTG) values using a 4-parameter curve fitting algorithm.

[3] = tested on: HBV rcDNA in HepDE19 cells; assay: HepDE19 assay with bDNA quantitation of HBV rcDNA; settings: Hepatitis B virus, 168 h, 7 days, top concentration 25 μM, Quantigene 2.0 bDNA, read-out: bDNA_RCDNA EC50
Procedure: as §1, §2

CC(=NOCc1ccccc1)c1c(C)cc(=O)n(O)c1O (mixture of isomers) [Compound 4, (E/Z)-5-(1-((Benzyloxy)imino)ethyl)-1,6-dihydroxy-4-methylpyridin-2(1H)-one]
EC50 [1]: 2.24 µM
EC50 [2]: 13.3 µM
EC50 [3]: > 25 µM

CC(=NOc1ccccc1)c1c(C)cc(=O)n(O)c1O (mixture of isomers) [Compound 2, (E/Z)-1,6-Dihydroxy-4-methyl-5-(1-(phenoxyimino)ethyl)pyridin-2(1H)-one]
EC50 [1]: 1.28 µM
EC50 [2]: 4.4 µM
EC50 [3]: 17.1 µM

CC(=NOCc1ccccc1F)c1c(C)cc(=O)n(O)c1O (mixture of isomers) [Compound 9, (E/Z)-5-(1-(((2-Fluorobenzyl)oxy)imino)ethyl)-1,6-dihydroxy-4-methylpyridin-2(1H)-one]
EC50 [2]: > 25 µM
EC50 [3]: > 25 µM

CC(=NOCc1ccccc1N)c1c(C)cc(=O)n(O)c1O (mixture of isomers) [Compound 8, (E/Z)-5-(1-(((2-Aminobenzyl)oxy)imino)ethyl)-1,6-dihydroxy-4-methylpyridin-2(1H)-one]
EC50 [1]: 2.25 µM
EC50 [2]: 11.1 µM
EC50 [3]: > 25 µM

CC(=NOCc1ccc(C)cc1)c1c(C)cc(=O)n(O)c1O (mixture of isomers) [Compound 5, (E/Z)-1,6-Dihydroxy-4-methyl-5-(1-(((4-methylbenzyl)oxy)imino)ethyl)pyridin-2(1H)-one]
EC50 [1]: 1.57 µM
EC50 [2]: 3.01 µM
EC50 [3]: > 25 µM

COc1ccccc1CON=C(C)c1c(C)cc(=O)n(O)c1O (mixture of isomers) [Compound 10, (E/Z)-1,6-Dihydroxy-5-(1-(((2-methoxybenzyl)oxy)imino)ethyl)-4-methylpyridin-2(1H)-one]
EC50 [1]: 0.98 µM
EC50 [2]: 6.53 µM
EC50 [3]: > 25 µM

CC(=NOc1ccc(F)cc1)c1c(C)cc(=O)n(O)c1O (mixture of isomers) [Compound 3, (E/Z)-5-(1-((4-fluorophenoxy)imino)ethyl)-1,6-dihydroxy-4-methylpyridin-2(1H)-one]
EC50 [1]: 1.18 µM
EC50 [2]: 7.41 µM
EC50 [3]: 22.2 µM

COc1ccc(CON=C(C)c2c(C)cc(=O)n(O)c2O)cc1 (mixture of isomers) [Compound 7, (E/Z)-1,6-Dihydroxy-5-(1-(((4-methoxybenzyl)oxy)imino)ethyl)-4-methylpyridin-2(1H)-one]
EC50 [1]: 0.35 µM
EC50 [2]: 7.11 µM
EC50 [3]: > 25 µM

CC(=NOCc1ccc(F)cc1)c1c(C)cc(=O)n(O)c1O (mixture of isomers) [Compound 6, (E/Z)-5-(1-(((4-fluorobenzyl)oxy)imino)ethyl)-1,6-dihydroxy-4-methylpyridin-2(1H)-one]
EC50 [1]: 0.64 µM
EC50 [2]: 5.97 µM
EC50 [3]: > 25 µM
